Assay results: patent publication US8592406B2, “Transnasal anticonvulsive pharmaceutical composition comprising poorly soluble anticonvulsant” (SK Biopharmaceuticals Co., Ltd., priority 2008, dated 2013)

How the values were obtained:
[1] = Pharmacokinetic test of lorazepam-containing nasal formulation in rabbit (bioavailability test); settings: plasma, other: transnasal, 1.6 mg/kg
Procedure: Right before this experiment, rabbits (n=3) were weighed, and a mixed solution including 25 mg of ketamine and 4 mg of xylazine was intramuscularly injected to the rabbits per kilogram (Kg) in order to anesthetize the rabbits, and a catheter was fastened to each rabbit to collect blood from rabbits' otic artery. An intravenous injection was performed by administering the mixed solution to the rabbits via the rabbits' otic artery at a dose of 1 mg/kg for approximately 20 seconds. […] Then, each formulation was sprayed to the rabbits using a Pfeiffer nasal spry system.
Blood samples (1 Ml) were collected from the rabbits' otic artery at 0, 2, 5, 10, 20, 30, 45, 60 and 120 minutes after the intravenous injection and transnasal administration of each formulation. Each of the blood samples was centrifuged to separate rabbit plasma, which was stored at −20° C. until is will be used for analysis. In order to analyze the plasma samples, each of the plasma samples (0.5 Ml) was exactly transferred to a 1.5 Ml polypropylene centrifuge tube. […]
In this case, the lorazepam was set to a concentration of 9%, and was administered at a dose of 1.6 mg/kg. […] Each plasma sample pre-treated with acetonitrile was quantified under the following LC/MS/MS conditions. […] The ionization was analyzed in a positive mode using an electrospray ionization (ESI) method, and the ion spray temperature was set to 500° C.

[2] = humans, transnasal, Cremophor EL vehicle; cited from earlier work

SMILES: O=C1Nc2ccc(Cl)cc2C(c2ccccc2Cl)=NC1O (centres unmarked) [lorazepam]
- bioavailability [1]: 35%

SMILES: CN1C(=O)CN=C(c2ccccc2)c2cc(Cl)ccc21 [diazepam]
- Peak concentration versus intravenous administration [2]: lower than that observed after the intravenous administration
